Assay results taken from paper PMC11477289, “Low-Basicity 5-HT6 Receptor Ligands from the Group of Cyclic Arylguanidine Derivatives and Their Antiproliferative Activity Evaluation” (International Journal of Molecular Sciences, 2024).
One block for each molecule: values may come before it.

How the values were obtained:
[1] = system: HSA and AGP (24:1); assay: in vitro; conditions: human, plasma
[2] = target: human serum albumin (HSA) (Homo sapiens, UniProt P02768); set-up: purchased Daicel Chiral Technologies; method as in PMID 28215942; conditions: cited from earlier work
[3] = target: T1, human 5-HT6 (Homo sapiens, UniProt P50406); assay: [3H]-LSD radioligand binding assay, 5-HT6R; conditions: HEK293 expressing human 5-HT6R, read-out: 5-HT6 Ki
T1 construct: expressed in transfected cells
Description: Next, the ligands’ affinity for the 5-HT6 receptors was evaluated in the [^3H]-LSD radioligand binding assay. Experiments were performed in a stable HEK293 cell line expressing the human 5-HT6R.
The pellets were stored at −80 °C.

[4] = set-up: method as in PMID 36183548; conditions: MLMs, as previously reported ref 30; cited from earlier work

Sequence of human serum albumin (HSA) (P02768 25-609): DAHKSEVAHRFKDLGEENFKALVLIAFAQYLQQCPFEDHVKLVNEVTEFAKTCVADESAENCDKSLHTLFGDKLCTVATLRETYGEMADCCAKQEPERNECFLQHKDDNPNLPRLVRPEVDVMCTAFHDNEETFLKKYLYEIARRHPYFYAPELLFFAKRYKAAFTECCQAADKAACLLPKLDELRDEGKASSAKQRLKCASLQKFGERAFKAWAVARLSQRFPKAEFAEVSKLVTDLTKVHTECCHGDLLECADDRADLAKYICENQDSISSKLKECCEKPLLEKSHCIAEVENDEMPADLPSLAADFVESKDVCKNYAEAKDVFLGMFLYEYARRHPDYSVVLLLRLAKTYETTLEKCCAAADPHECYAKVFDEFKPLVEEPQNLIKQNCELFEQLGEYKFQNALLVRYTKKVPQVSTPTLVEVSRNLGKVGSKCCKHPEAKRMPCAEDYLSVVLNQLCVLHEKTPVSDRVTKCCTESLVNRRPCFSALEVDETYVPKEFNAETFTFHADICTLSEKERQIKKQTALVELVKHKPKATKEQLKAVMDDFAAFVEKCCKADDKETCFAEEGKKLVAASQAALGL
T1 sequence (P50406 whole entry): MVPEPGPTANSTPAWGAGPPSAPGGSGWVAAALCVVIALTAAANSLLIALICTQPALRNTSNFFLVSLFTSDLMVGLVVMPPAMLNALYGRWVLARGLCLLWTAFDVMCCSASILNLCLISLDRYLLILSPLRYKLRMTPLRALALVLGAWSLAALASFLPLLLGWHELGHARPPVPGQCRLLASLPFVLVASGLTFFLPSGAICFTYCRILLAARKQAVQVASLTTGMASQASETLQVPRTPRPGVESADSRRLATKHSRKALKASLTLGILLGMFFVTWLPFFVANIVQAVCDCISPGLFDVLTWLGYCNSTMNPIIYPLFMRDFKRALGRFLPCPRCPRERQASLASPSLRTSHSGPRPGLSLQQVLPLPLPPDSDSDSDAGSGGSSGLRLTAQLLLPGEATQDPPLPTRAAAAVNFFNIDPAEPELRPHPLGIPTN

fraction unbound at 12 min, 20 µM [1]: 0.015
SMILES: CC(=O)CC(c1ccccc1)c1c(O)c2ccccc2oc1=O (stereo not shown) [warfarin]

SMILES: O=c1[nH]c2ccccc2n1C1CCN(CCCC(c2ccc(F)cc2)c2ccc(F)cc2)CC1 [pimozide]
affinity to HSA [2]: 98.6%

Ki [3]: 651 ± 135 nM
SMILES: O=S(=O)(NC1=NCc2ccccc2N1)c1cccc2ccccc12 [PR 40, N -(3,4-dihydroquinazolin-2-yl)naphthalene-1-sulfonamide]
metabolized [4]: 97%
